Source: PubChem BioAssay (NCI)
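Cells were grown in 96-well plates and exposed to each compound for 48 hours at five concentrations; endpoints were interpolated linearly between bracketing concentrations, or set to the highest concentration if not reached. TGI denotes the concentration required for complete inhibition of growth.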

Experiments:
Experiment in all cases: growth of human tumour cells (NCI), 48 h
MCF7 breast = test system: MCF7 breast
MDA-N = test system: MDA-N
SF-295 CNS = test system: SF-295 CNS
HOP-92 NSCLC = test system: HOP-92 NSCLC
HS 578T breast = test system: HS 578T breast
SK-OV-3 ovarian = test system: SK-OV-3 ovarian
OVCAR-3 ovarian = test system: OVCAR-3 ovarian
NCI-H460 lung = test system: NCI-H460 lung
CCRF-CEM leukemia = test system: CCRF-CEM leukemia
EKVX NSCLC = test system: EKVX NSCLC
HL-60(TB) leukemia = test system: HL-60(TB) leukemia
IGROV1 ovarian = test system: IGROV1 ovarian
SN12C renal = test system: SN12C renal
HOP-62 NSCLC = test system: HOP-62 NSCLC
NCI-H226 lung = test system: NCI-H226 lung
A498 renal = test system: A498 renal
SK-MEL-2 melanoma = test system: SK-MEL-2 melanoma
LOX IMVI melanoma = test system: LOX IMVI melanoma
HT29 colon = test system: HT29 colon
CAKI-1 renal = test system: CAKI-1 renal
SW-620 colon = test system: SW-620 colon
BT-549 breast = test system: BT-549 breast
HCT-15 colon = test system: HCT-15 colon
COLO 205 colon = test system: COLO 205 colon
ACHN renal = test system: ACHN renal
NCI-H522 lung = test system: NCI-H522 lung
UACC-257 melanoma = test system: UACC-257 melanoma
RXF 393 renal = test system: RXF 393 renal
PC-3 prostate = test system: PC-3 prostate
SNB-75 CNS = test system: SNB-75 CNS
HCC-2998 colon = test system: HCC-2998 colon
OVCAR-8 ovarian = test system: OVCAR-8 ovarian
OVCAR-4 ovarian = test system: OVCAR-4 ovarian
U251 CNS = test system: U251 CNS
SK-MEL-5 melanoma = test system: SK-MEL-5 melanoma
T-47D breast = test system: T-47D breast
K-562 leukemia = test system: K-562 leukemia
UO-31 renal = test system: UO-31 renal
SF-539 CNS = test system: SF-539 CNS
MOLT-4 leukemia = test system: MOLT-4 leukemia
SK-MEL-28 melanoma = test system: SK-MEL-28 melanoma
NCI-H23 lung = test system: NCI-H23 lung
DU-145 prostate = test system: DU-145 prostate
MDA-MB-231 breast = test system: MDA-MB-231 breast
MALME-3M melanoma = test system: MALME-3M melanoma
HCT-116 colon = test system: HCT-116 colon
786-0 renal = test system: 786-0 renal
NCI/ADR-RES ovarian = test system: NCI/ADR-RES ovarian
SF-268 CNS = test system: SF-268 CNS
KM12 colon = test system: KM12 colon
A549 NSCLC = test system: A549 NSCLC
TK-10 renal = test system: TK-10 renal
SR leukemia = test system: SR leukemia
SNB-19 CNS = test system: SNB-19 CNS
RPMI-8226 leukemia = test system: RPMI-8226 leukemia
UACC-62 melanoma = test system: UACC-62 melanoma
OVCAR-5 ovarian = test system: OVCAR-5 ovarian
MDA-MB-435 = test system: MDA-MB-435
M14 melanoma = test system: M14 melanoma

Measured: TGI

CC(/C=N/N(C)C1=NCCCN1)=N/N(C)C1=NCCCN1
not listed: M14 melanoma
> 100 µM: all other assays above

CN(/N=C(\C(=O)O)c1ccccc1)C1=NCCCCN1
not listed: SNB-19 CNS | M14 melanoma
> 100 µM: all other assays above

COc1ccc2c(c1)C(N)=C(c1ccccc1OC)C2=O
not listed: NCI-H522 lung | SK-MEL-5 melanoma | A549 NSCLC
> 100 µM: all other assays above
